From patent publication US20240182407A1, “QUINOLINE COMPOUND SALT OR CRYSTAL FORM, PREPARATION METHOD THEREFOR, AND APPLICATION THEREOF” (Nanjing Zenshine Pharmaceuticals Co., Ltd., priority 2021, published 2024)
Values joined by “and” are separate entries in the source; they are usually repeats but may differ in a detail not shown here. Equal entries are not always repeated. Where two headings read alike, the source gives them in different places.

How the values were obtained:
[1] = Solubility in organic solvents; format: physicochemical; details: organic solvent or mixture
Text: Therefore, these two solvents were taken, for example, as good solvents and subjected to anti-solvent precipitation experiments.

[2] = Crystal form stability under high humidity (XRPD); format: physicochemical; details: RT/92.5% RH, 11 days
Text: In addition, the stability of p-toluenesulfonate crystal form I (Sample 8) under grinding and high humidity conditions was investigated.
For example, the p-toluenesulfonate crystal form I sample was placed at RT/92.5% RH for 11 days and then measured by XRPD.

PI3Kδ = biological target: T1, PI3Kδ (Homo sapiens, UniProt O00329); experiment: Akt phosphorylation in Raji cells stimulated by IgM (AlphaLISA); details: phosphorylation of Akt, read-out: IC50 PI3Kδ Cell-based
T1 construct: host or cells: Raji cells
Method: (§1) In addition, taking Sample 6 as an example, the inhibitory effects thereof on PI3Kα, PI3Kβ, PI3Kγ and PI3Kδ in corresponding cells were determined. The activity of PI3Kα was detected by the phosphorylation level of Akt in C2Cl2 cells stimulated by IGF-1, the activity of PI3Kβ was detected by the phosphorylation level of Akt in PC-3 cells stimulated by LPA, the activity of PI3Kγ was detected by the phosphorylation level of Akt in Raw264.7 cells stimulated by c5α, and the activity of PI3Kδ was detected by the phosphorylation level of Akt in Raji cells stimulated by IgM. The phosphorylation level of Akt in cells was determined by means of AlphaLISA technique from PerkinElemer.
(§2) The C2C12 cells, PC-3 cells, Raw264.7 cells and Raji cells were all purchased from ATCC.

PI3Kα = biological target: T2, PI3Kα (Mus musculus, UniProt P42337); experiment: Akt phosphorylation in C2Cl2 cells stimulated by IGF-1 (AlphaLISA); details: phosphorylation of Akt, C2C12 cells, read-out: IC50 PI3Kα Cell-based
T2 construct: host or cells: C2C12 cells
Method: as §1, §2

mouse breast cancer 4T1 = experiment: Mouse breast cancer 4T1 subcutaneous transplantation tumor model; format: in vivo
Text: WT cell subcutaneous transplantation tumor model.

SU-DHL-6 = experiment: Proliferation of lymphoma cell line in vitro, SU-DHL-6; format: cell-based; details: Homo sapiens, read-out: absolute IC50 (AbsIC50), proliferation
PI3Kδ (p110δ/p85a) = biological target: T3, PI3Kδ (p110δ/p85a) (Homo sapiens, UniProt O00329); experiment: ADP-Glo kinase inhibition, PI3Kδ; details: read-out: IC50 PI3Kδ Biochemical
T3 construct: purchased Invitrogen PV6452
Method: In Example 7, the inhibitory effects of Sample 6 prepared in Example 6 above on kinases PI3Kα, PI3Kβ, PI3Kγ and PI3Kδ were tested.
The kinases used in the experiment were respectively purchased from: • PI3Kα (p110α/p85α), purchased from Invitrogen, under Cat. No. PV4788; • PI3Kβ (p110β), purchased from eurofins, under Cat. No. 14-603M; • PI3Kδ (p110δ/p85a), purchased from Invitrogen, under Cat. No. PV6452; and • PI3Kγ (p110γ), purchased from Invitrogen, under Cat. No. PR8641C. • Firstly, a 1× kinase buffer solution was prepared, which comprised: • 50 mM HEPES, pH 7.5 • 3 mM MgCl2 • 1 mM EGTA • 100 mM NaCl • 0.03% CHAPS • 2 mM DTT
On kinase PI3Kδ, the final detection concentration of the compound was 1 μM. 100× concentration was prepared, i.e., 100 μM. 90 μL of 100% DMSO was added to the second well in row B on a 96-well plate, 10 μL of a 1000 μM compound solution was then taken from the second well in row A, and 3-fold serial dilution was made to obtain a total of 10 concentrations.
50 μL of 100% DMSO was transferred to two empty wells as Max well and Min well, respectively.
50 nL of the compound was transferred into a 384-well plate using ECHO550. […]
Finally, the chemiluminescence values were read from Envision 2104 Multi-label Reader and subjected to curve fitting, and IC50 was calculated.

[3] = Dynamic water desorption analysis (DVS), hygroscopicity; format: physicochemical
Method: (§3) The instrument model used for DVS analysis was IGA Sorp (Hidentity Isochema). The sample was measured in a gradient mode, the humidity range for the test was from 0% to 90%, and the humidity increment of each gradient was 10%. The time to keep at each humidity gradient was from 30 min to 2 h.
It was determined by NMR and TGA that the sample had essentially no weight loss and no solvent residue before decomposition.
as §3, with “Sample 3 was taken as an example for dynamic water desorption analysis (DVS) characterization. The instrument” for “The instrument”

[4] = Solid stability, 40° C./75% RH and 60° C., one week (HPLC purity, XRPD); format: physicochemical
Method: Appropriate amounts of Compound A and p-toluenesulfonate of Compound A (Sample 5, crystal form I) were respectively placed in 40° C./75% RH and 60° C. environments for one week to determine solid stability. At days 0 and 7, HPLC purity analysis and solid XRPD determination were carried out, and some of the results were as shown in Table 7.

T3 sequence (O00329 whole entry): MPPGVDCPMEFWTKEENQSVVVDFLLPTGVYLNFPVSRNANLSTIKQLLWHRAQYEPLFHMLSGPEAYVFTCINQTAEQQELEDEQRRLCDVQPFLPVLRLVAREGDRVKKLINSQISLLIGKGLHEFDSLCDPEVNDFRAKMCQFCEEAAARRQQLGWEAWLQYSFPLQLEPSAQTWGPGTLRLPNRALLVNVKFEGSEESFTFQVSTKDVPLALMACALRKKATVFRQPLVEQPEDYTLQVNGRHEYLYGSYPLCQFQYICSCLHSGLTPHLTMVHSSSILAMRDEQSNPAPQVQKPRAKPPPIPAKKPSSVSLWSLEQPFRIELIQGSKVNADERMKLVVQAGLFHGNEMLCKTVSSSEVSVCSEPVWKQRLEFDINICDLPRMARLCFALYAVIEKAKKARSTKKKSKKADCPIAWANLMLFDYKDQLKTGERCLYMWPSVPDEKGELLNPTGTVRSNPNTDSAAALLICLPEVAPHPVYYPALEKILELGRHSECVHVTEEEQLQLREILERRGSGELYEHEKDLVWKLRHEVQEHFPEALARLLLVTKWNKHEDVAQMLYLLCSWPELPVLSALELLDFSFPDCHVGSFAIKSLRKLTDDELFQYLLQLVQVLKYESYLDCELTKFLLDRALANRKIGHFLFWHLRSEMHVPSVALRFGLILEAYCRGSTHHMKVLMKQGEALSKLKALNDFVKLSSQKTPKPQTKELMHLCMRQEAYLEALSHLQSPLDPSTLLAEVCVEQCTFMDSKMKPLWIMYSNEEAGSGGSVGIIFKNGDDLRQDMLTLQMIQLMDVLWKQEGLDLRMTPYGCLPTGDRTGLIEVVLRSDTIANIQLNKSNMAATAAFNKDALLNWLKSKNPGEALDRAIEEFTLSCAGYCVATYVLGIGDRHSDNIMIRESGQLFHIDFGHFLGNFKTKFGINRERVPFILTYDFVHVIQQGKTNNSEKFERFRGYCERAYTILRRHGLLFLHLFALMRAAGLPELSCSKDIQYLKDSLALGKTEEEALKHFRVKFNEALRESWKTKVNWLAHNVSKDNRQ
T3 sequence (P27986 whole entry partner): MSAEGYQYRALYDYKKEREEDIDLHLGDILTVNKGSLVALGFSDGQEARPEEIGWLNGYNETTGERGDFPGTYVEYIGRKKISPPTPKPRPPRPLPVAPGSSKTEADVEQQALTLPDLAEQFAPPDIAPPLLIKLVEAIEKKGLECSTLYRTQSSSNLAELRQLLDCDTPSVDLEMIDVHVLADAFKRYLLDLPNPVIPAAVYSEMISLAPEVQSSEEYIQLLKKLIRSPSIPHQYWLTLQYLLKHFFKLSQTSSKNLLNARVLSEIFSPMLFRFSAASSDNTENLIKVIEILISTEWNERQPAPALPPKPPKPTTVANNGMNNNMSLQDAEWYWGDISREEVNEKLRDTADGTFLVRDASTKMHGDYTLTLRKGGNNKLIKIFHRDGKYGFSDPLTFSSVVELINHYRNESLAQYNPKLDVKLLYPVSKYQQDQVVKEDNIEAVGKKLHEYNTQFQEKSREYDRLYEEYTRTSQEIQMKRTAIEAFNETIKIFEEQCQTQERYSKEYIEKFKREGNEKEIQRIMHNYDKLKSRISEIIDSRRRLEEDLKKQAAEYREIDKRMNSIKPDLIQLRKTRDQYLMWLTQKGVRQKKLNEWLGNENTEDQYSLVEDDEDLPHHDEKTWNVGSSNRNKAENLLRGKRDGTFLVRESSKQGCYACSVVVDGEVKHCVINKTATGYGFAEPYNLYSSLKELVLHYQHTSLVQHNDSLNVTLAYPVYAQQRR
T1 sequence (O00329 whole entry): as the sequence (O00329 whole entry) above
T1 sequence (P27986 whole entry partner): as the sequence (P27986 whole entry partner) above
T2 sequence (P42337 whole entry): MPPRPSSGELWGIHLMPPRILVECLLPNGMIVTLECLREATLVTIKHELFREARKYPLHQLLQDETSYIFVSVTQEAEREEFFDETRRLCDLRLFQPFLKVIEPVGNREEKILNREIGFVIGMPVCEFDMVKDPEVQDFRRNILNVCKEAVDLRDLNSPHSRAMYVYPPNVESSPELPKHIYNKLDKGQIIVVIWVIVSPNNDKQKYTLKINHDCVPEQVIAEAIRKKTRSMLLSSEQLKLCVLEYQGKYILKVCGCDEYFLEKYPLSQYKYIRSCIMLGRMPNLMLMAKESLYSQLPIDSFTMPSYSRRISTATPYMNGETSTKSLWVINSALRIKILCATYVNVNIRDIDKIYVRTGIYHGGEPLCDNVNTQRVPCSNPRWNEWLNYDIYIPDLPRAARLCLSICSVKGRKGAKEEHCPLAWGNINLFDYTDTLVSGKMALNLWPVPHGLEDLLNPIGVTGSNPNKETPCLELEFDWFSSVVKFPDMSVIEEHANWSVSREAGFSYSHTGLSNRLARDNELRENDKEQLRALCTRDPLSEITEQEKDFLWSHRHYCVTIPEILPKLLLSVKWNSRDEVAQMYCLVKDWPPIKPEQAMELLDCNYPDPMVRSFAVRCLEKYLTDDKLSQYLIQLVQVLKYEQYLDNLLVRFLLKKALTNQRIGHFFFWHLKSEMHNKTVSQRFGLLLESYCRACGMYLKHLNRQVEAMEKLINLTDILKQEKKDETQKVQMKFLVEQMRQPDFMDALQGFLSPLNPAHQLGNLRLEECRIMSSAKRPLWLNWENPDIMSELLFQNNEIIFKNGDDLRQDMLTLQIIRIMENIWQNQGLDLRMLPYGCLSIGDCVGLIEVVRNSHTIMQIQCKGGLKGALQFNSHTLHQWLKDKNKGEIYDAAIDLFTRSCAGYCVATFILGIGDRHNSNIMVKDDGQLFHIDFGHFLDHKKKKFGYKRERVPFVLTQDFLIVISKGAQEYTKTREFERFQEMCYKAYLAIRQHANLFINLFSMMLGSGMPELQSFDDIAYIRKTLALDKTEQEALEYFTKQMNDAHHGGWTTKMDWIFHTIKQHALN
T2 sequence (P26450 whole entry partner): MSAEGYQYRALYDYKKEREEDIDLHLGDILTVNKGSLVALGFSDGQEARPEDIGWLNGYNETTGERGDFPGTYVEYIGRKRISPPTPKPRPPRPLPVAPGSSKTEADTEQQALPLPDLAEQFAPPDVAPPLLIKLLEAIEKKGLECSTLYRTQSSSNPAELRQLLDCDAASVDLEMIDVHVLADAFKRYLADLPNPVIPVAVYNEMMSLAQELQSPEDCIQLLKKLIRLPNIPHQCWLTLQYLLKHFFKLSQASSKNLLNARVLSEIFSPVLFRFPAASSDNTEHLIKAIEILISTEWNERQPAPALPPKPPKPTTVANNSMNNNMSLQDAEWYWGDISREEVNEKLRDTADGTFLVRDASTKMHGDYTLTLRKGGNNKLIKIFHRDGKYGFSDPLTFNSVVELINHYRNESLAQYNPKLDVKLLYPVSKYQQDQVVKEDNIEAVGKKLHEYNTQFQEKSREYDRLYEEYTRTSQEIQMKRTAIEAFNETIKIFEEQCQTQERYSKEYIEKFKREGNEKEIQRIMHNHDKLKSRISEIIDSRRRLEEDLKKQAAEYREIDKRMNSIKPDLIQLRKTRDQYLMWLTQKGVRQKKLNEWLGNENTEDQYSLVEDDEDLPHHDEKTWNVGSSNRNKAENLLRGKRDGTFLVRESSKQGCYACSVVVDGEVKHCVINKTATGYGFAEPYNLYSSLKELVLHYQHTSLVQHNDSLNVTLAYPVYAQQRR

C[C@H](Nc1nc(N)nc(N)c1C#N)c1cc2ccc(F)cc2nc1-c1ccccn1 [p-toluenesulfonate of Compound A]
Solubility ([1]; methanol, read-out: solubility in methanol): > 24 mg/mL | Solubility ([1]; tetrahydrofuran, read-out: solubility in tetrahydrofuran): > 11.6 mg/mL | crystal form after high humidity (XRPD) [2]: crystal form of the sample did not change | IC50 (PI3Kδ): 0.95 nM | IC50 (PI3Kα): 3520 nM | effect on tumor volume growth (mouse breast cancer 4T1): significant inhibitory effect | IC50 (SU-DHL-6): < 100 nM | IC50 (PI3Kδ (p110δ/p85a)): 0.49 nM | crystal form before and after humidity change (XRPD after DVS) ([3]; 0% to 90% RH): remained unchanged | moisture absorbed (DVS) ([3]; at 90% RH): 0.92% | physical and chemical stability (purity and crystal form) ([4]; 40° C./75% RH and 60° C., 7 days): no change in purity and crystal form | Purity (peak area %) Average - 40° C./75% RH - 7 d ([4]; solid, 40° C./75% RH, 7 d, average, listed as Sample 5): 99.69 peak area % | Purity (peak area %) 40° C./75% RH - 7 d ([4]; solid, 40° C./75% RH, 7 d, single determinations, listed as Sample 5): 99.68 peak area % and 99.69 peak area % | Purity (peak area %) Average - 60° C. - 7 d ([4]; solid, 60° C., 7 d, average, listed as Sample 5): 99.65 peak area % | Purity (peak area %) 60° C. - 7 d ([4]; solid, 60° C., 7 d, single determinations, listed as Sample 5): 99.56 peak area % and 99.74 peak area % | Purity (peak area %) Average - 0 d ([4]; solid, day 0, average, listed as Sample 5): 99.48 peak area % | Purity (peak area %) 0 d ([4]; solid, day 0, single determinations, listed as Sample 5): 99.46 peak area % and 99.49 peak area %
